# In paper PMC4466525, “Design, Synthesis and Structure-Activity Relationship Studies of Novel Survivin Inhibitors with Potent Anti-Proliferative Properties” (PLoS ONE, 2015):
# Where two headings read alike, the source gives them in different places.
# Columns and labels:
# A375 = assay: Cell viability (MTS) anti-proliferative assay, A375; format: cell-based; conditions: A-375, A375 human melanoma, 48 h treatment, n = 4, read-out: IC50 values ± SEM, A375
# Protocol: (§1) The anti-proliferative effect of UC-112 and its analogs were tested in human melanoma (A375, M14 and M14/LCC6MDR1) and human prostate cancer (PC-3) cell lines. All the cell lines were purchased from ATCC (American Type Culture Collection, Manassas, VA). The cancer cells were cultured using the supplemented cell culture medium as described before at 37°C in a humidified atmosphere containing 5% CO2. 5000 cells in logarithm growing phase were seeded overnight into each well of a 96-well plate. Then the cells were continuously incubated with sequential diluted compound solution (10 nM to 100 μM, 100 μl per well) in cell culture medium.
# M14 = assay: Cell viability (MTS) anti-proliferative assay, M14; format: cell-based; conditions: M14 human melanoma, 48 h treatment, n = 4, read-out: IC50 values ± SEM, M14
# Protocol: as §1
# M14/LCC6MDR1 = assay: Cell viability (MTS) anti-proliferative assay, multidrug-resistant M14/LCC6MDR1; format: cell-based, human; conditions: for IC50: multidrug-resistant M14/LCC6MDR1 melanoma, 48 h treatment, MTS, n = 4, read-out: IC50 values ± SEM, M14/LCC6MDR1; for Resistance Index: IC50 on M14/LCC6MDR1 divided by IC50 on parental M14
# Protocol: as §1
# PC-3 = assay: Cell viability (MTS) anti-proliferative assay, PC-3; format: cell-based; conditions: PC-3 human prostate cancer, 48 h treatment, n = 4, read-out: IC50 values ± SEM, PC-3
# Protocol: as §1
# NCI-60 cell lines = assay: NCI-60 cell line screening (SRB), whole panel; format: cell-based, human; conditions: for Activity in NCI-60 one-concentration screening: 10 μM
# Protocol: Four compounds including the parental compound UC-112 were submitted to National Cancer Institute for its NCI-60 cell line screening, initially tested at one concentration (10 μM), and subsequently selected for full five concentration testing following the standard protocols disclosed by NCI [34]. In brief, cells were plated into 96 well micro-titer plates 24 h prior to the treatment of compound solution for 48 h, then the cell viability was read out through absorbance of sulforhodamine B (SRB) staining.
# caspase 3/7 = assay: Caspase 3/7 functional assay (Caspase-Glo 3/7); format: cell-based, human; conditions: 1 μM, 24 h, A375 or PC-3 cells, N = 3
# Protocol: The caspase 3/7 activity of cancer cells treated by DMSO control or compound of interest was analyzed using Glo Caspase-Glo 3/7 kit from Promega Corporation (Madison, WI) as per manufacturer’s instructions in similar protocol as described before. The readings of relative luminescence unit were normalized by the cell viability read from the same well determined by compatible CytoTox-Fluor Cytotoxicity assay kit (Promega, WI).
Structure (SMILES),IC50 (A375),IC50 (PC-3),IC50 (M14),"IC50 (M14/LCC6MDR1; Homo sapiens, 48 h)",Resistance Index (M14/LCC6MDR1),Activity in NCI-60 one-concentration screening (NCI-60 cell lines),Caspase 3/7 activation relative to DMSO control group (caspase 3/7),IC50 (M14/LCC6MDR1),"GI50 (NCI-60 cell lines; Homo sapiens, five dose testing, 48 h, SRB, read-out: Average GI50 over all cancer cell lines in the NCI-60 panel)"
"Oc1c(CN2CCCC2)cc(COCc2ccccn2)c2cccnc12 [6c, 5-((pyridin-2-ylmethoxy)methyl)-7-(pyrrolidin-1-ylmethyl)quinolin-8-ol]",8400 ± 1500 nM,> 30000 nM,8000 ± 2200 nM,> 30000 nM,>3.8,–,–,–,–
"CCOCc1cc(CN2CCCC2)c(O)c2ncccc12 [6e, 5-(ethoxymethyl)-7-(pyrrolidin-1-ylmethyl)quinolin-8-ol]",6100 ± 700 nM,–,5100 ± 2100 nM,–,–,–,–,–,–
"COCCn1c2c([n+](Cc3cnccn3)c1C)C(=O)c1ccccc1C2=O [YM-155, reference compound]",–,–,3 nM,> 10000 nM,higher than 2941,–,–,–,–
"Oc1c(CN2CCCC2)cc(COCc2ccc(Br)cc2)c2cccnc12 [4c, 5-(((4-bromobenzyl)oxy)methyl)-7-(pyrrolidin-1-ylmethyl)quinolin-8-ol]",900 ± 200 nM,700 ± 300 nM,1000 ± 200 nM,1800 ± 600 nM,1.8,good activity,up to 4 folds,–,–
"CCCOCc1cc(CN2CCCC2)c(O)c2ncccc12 [6f, 5-(propoxymethyl)-7-(pyrrolidin-1-ylmethyl)quinolin-8-ol]",5000 ± 300 nM,–,5900 ± 1200 nM,–,–,–,–,–,–
"CCCCOCc1cc(CN2CCCC2)c(O)c2ncccc12 [6g, 5-(butoxymethyl)-7-(pyrrolidin-1-ylmethyl)quinolin-8-ol]",3000 ± 500 nM,–,4900 ± 1300 nM,–,–,–,–,–,–
"Oc1c(CN2CCCC2)cc(COCc2ccc(OCc3ccccc3)cc2)c2cccnc12 [4j, 5-(((4-(benzyloxy)benzyl)oxy)methyl)-7-(pyrrolidin-1-ylmethyl)quinolin-8-ol]",2800 ± 100 nM,–,–,12100 ± 500 nM,–,–,–,–,–
"CC(C)(C)c1ccc(COCc2cc(CN3CCCC3)c(O)c3ncccc23)cc1 [4h, 5-(((4-(tert-butyl)benzyl)oxy)methyl)-7-(pyrrolidin-1-ylmethyl)quinolin-8-ol]",1100 ± 400 nM,1500 ± 300 nM,–,1500 ± 700 nM,–,–,–,–,–
"Cc1ccc(COCc2cc(CN3CCCC3)c(O)c3ncccc23)cc1 [4e, 5-(((4-methylbenzyl)oxy)methyl)-7-(pyrrolidin-1-ylmethyl)quinolin-8-ol]",1700 ± 300 nM,1100 ± 200 nM,2300 ± 500 nM,4100 ± 2000 nM,1.8,–,–,–,–
"Oc1c(CN2CCCC2)cc(COCc2ccco2)c2cccnc12 [6a, 5-((furan-2-ylmethoxy)methyl)-7-(pyrrolidin-1-ylmethyl)quinolin-8-ol]",2700 ± 300 nM,27500 ± 2000 nM,3100 ± 300 nM,15300 ± 3100 nM,4.9,–,–,–,–
"Oc1c(CN2CCCC2)cc(COCc2ccc(Cl)cc2)c2cccnc12 [4b, 5-(((4-chlorobenzyl)oxy)methyl)-7-(pyrrolidin-1-ylmethyl)quinolin-8-ol]",1500 ± 300 nM,900 ± 100 nM,1100 ± 100 nM,2400 ± 500 nM,2.2,–,–,–,–
"Oc1c(CN2CCCC2)cc(COCc2ccc(F)cc2)c2cccnc12 [4a, 5-(((4-fluorobenzyl)oxy)methyl)-7-(pyrrolidin-1-ylmethyl)quinolin-8-ol]",1500 ± 200 nM,700 ± 200 nM,1800 ± 300 nM,4400 ± 700 nM,2.4,–,–,–,–
"CC(=O)Nc1ccc(COCc2cc(CN3CCCC3)c(O)c3ncccc23)cc1 [4k, N-(4-(((8-hydroxy-7-(pyrrolidin-1-ylmethyl)quinolin-5-yl)methoxy)methyl)phenyl)acetamide]",4700 ± 800 nM,–,–,5500 ± 1300 nM,–,–,–,–,–
"COc1ccc(COCc2cc(CN3CCCC3)c(O)c3ncccc23)cc1 [4i, 5-(((4-methoxybenzyl)oxy)methyl)-7-(pyrrolidin-1-ylmethyl)quinolin-8-ol]",1800 ± 200 nM,1000 ± 400 nM,1500 ± 400 nM,3800 ± 600 nM,2.5,–,–,–,–
"Oc1c(CN2CCCC2)cc(COCc2cccs2)c2cccnc12 [6b, 7-(pyrrolidin-1-ylmethyl)-5-((thiophen-2-ylmethoxy)methyl)quinolin-8-ol]",2500 ± 500 nM,3400 ± 700 nM,1900 ± 900 nM,4200 ± 200 nM,2.2,–,–,–,–
"COc1cc(COCc2cc(CN3CCCC3)c(O)c3ncccc23)cc(OC)c1OC [4l, 7-(pyrrolidin-1-ylmethyl)-5-(((3,4,5-trimethoxybenzyl)oxy)methyl)quinolin-8-ol]",2800 ± 400 nM,1600 ± 300 nM,3600 ± 1000 nM,> 30000 nM,> 8.3,–,–,–,–
"Oc1c(CN2CCCC2)cc(COCc2ccc(C(F)(F)F)cc2)c2cccnc12 [4d, 7-(pyrrolidin-1-ylmethyl)-5-(((4-(trifluoromethyl)benzyl)oxy)methyl)quinolin-8-ol]",900 ± 300 nM,1000 ± 100 nM,1000 ± 400 nM,1900 ± 500 nM,1.9,–,–,–,–
"Oc1c(CN2CCCC2)cc(COCC2CCCCC2)c2cccnc12 [6d, 5-((cyclohexylmethoxy)methyl)-7-(pyrrolidin-1-ylmethyl)quinolin-8-ol]",1000 ± 100 nM,–,1300 ± 600 nM,–,–,–,–,–,–

# Now from value to molecule, other results behind:
IC50 (A375),IC50 (PC-3),Structure (SMILES),IC50 (M14),"IC50 (M14/LCC6MDR1; Homo sapiens, 48 h)",Resistance Index (M14/LCC6MDR1),Activity in NCI-60 one-concentration screening (NCI-60 cell lines),Caspase 3/7 activation relative to DMSO control group (caspase 3/7),IC50 (M14/LCC6MDR1),"GI50 (NCI-60 cell lines; Homo sapiens, five dose testing, 48 h, SRB, read-out: Average GI50 over all cancer cell lines in the NCI-60 panel)"
1400 ± 300 nM,1100 ± 100 nM,"Oc1c(CN2CCCC2)cc(CSCc2ccccc2)c2cccnc12 [12a, 5-((benzylthio)methyl)-7-(pyrrolidin-1-ylmethyl)quinolin-8-ol]",1400 ± 200 nM,2900 ± 600 nM,2.1,good activity,up to 4 folds,–,–
2400 ± 700 nM,–,"Oc1c(CN2CCCC2)cc(COCCCc2ccccc2)c2cccnc12 [10b, 5-((3-phenylpropoxy)methyl)-7-(pyrrolidin-1-ylmethyl)quinolin-8-ol]",2300 ± 800 nM,15000 to 20000 nM,8.7,–,–,20000 ± 1600 nM,–
5000 ± 1600 nM,–,"Oc1c(CN2CCOCC2)cc(COCc2ccccc2)c2cccnc12 [8b, 5-((benzyloxy)methyl)-7-(morpholinomethyl)quinolin-8-ol]",4800 ± 500 nM,3500 ± 1000 nM,0.7,–,–,–,–
2800 ± 900 nM,–,"Oc1c(CN2CCCC2)cc(COCCc2ccccc2)c2cccnc12 [10a, 5-(phenethoxymethyl)-7-(pyrrolidin-1-ylmethyl)quinolin-8-ol]",2900 ± 200 nM,15000 to 20000 nM,5.2,–,–,15000 ± 2500 nM,–
1900 ± 600 nM,1600 ± 1000 nM,"Oc1c(CN2CCCC2)cc(COCc2ccccc2)c2cccnc12 [UC-112, 5-((benzyloxy)methyl)-7-(pyrrolidin-1-ylmethyl)quinolin-8-ol, reference compound]",2100 ± 300 nM,3200 ± 500 nM,1.5,good activity,–,–,2200 nM
7100 ± 700 nM,2500 ± 600 nM,"CN(Cc1ccccc1)Cc1cc(CN2CCCC2)c(O)c2ncccc12 [12b, 5-((benzyl(methyl)amino)methyl)-7-(pyrrolidin-1-ylmethyl)quinolin-8-ol]",6200 ± 1400 nM,8000 ± 1000 nM,1.3,–,–,–,–
1100 ± 100 nM,1300 ± 300 nM,"Oc1c(CN2CCCCC2)cc(COCc2ccccc2)c2cccnc12 [8a, 5-((benzyloxy)methyl)-7-(piperidin-1-ylmethyl)quinolin-8-ol]",1300 ± 200 nM,2100 ± 600 nM,1.6,–,–,–,–
